Where two headings read alike, the source gives them in different places.
How the values were obtained:
HeLa-ACE2 cells = experiment: cells; type: cell-based; conditions: Table 2, total cell count in infected plates
[1] = test system: SARS-CoV-2 (strain USA-WA1/2020); experiment: microbe, parasite or virus in culture; type: cell-based
[2] = Uninfected host cell cytotoxicity counter screen; type: cell-based; conditions: human
Experimental: Uninfected host cell cytotoxicity counter screen: HeLa-ACE2 cells were maintained as described for the infection assay and seeded in the assay-ready plates at 400 cells/well. Plates were incubated for 24 hours at 37° C. 5% CO2. To assess cell viability, the Image-iT DEAD green reagent was used according to manufacturer instructions. Cells were fixed with 4% paraformaldehyde, and counterstained with DAPI. Fixed cells are imaged as described above.
Viral replication data analysis: Data from the primary screen and the host cell cytotoxicity screen are normalized to neutral (DMSO) […] inhibitor controls (2.5 μM Remdesivir for antiviral effect and 10 μM puromycin for infected host cell toxicity). For the uninfected host cell cytotoxicity counter-screen 40 μM puromycin is used as the positive control. Concentration response experiments will be tested in triplicate.

[3] = target: SARS-CoV-2 main protease (Mpro) (Severe acute respiratory syndrome coronavirus 2, UniProt P0DTD1); experiment: biochemical
[4] = Severe acute respiratory syndrome coronavirus 2, HeLa-ACE2, read-out: CoV-2 HeLa EC50, Table 2, SARS-CoV-2 infected HeLa-ACE2 cells
[5] = Severe acute respiratory syndrome coronavirus 2, Table 2, SARS-CoV-2 infected HeLa-ACE2 cells, read-out: CoV-2 HeLa EC50

SMILES	EC50 (HeLa-ACE2 cells) [µM]	EC50 [1, 4] [µM]	CC50 at 24 h [2] [µM]	also measured
O=C(NC1CN(C(c2ccccc2)c2ccccc2)C1)c1cccnc1 [AA-603, N-(1-benzhydrylazetidin-3-yl)nicotinamide]	> 9.61	> 9.61	> 39.8	–
O=C(c1cnc(Cl)c(Cl)c1)N1CCN(C(c2ccccc2)c2ccccc2)CC1 [AA-608, (4-benzhydrylpiperazin-1-yl)(5,6-dichloropyridin-3-yl)methanone]	0.863	–	> 39.8	EC50 [1, 5]: 1.74 µM
Cc1ccc(C(=O)N2CCN(C(c3ccccc3)c3ccccc3)CC2)cn1 [AA-612, (4-benzhydrylpiperazin-1-yl)(6-methylpyridin-3-yl)methanone]	0.863	–	> 39.8	EC50 [1, 5]: 1.74 µM
Cc1cncc(C(=O)N2CC3CC(C2)N3C(c2ccccc2)c2ccccc2)c1 [AA-614, (6-benzhydryl-3,6-diazabicyclo[3.1.1]heptan-3-yl)(5-methylpyridin-3-yl)methanone]	> 9.61	> 9.61	–	CC50 at 24 h ([2]; Table 2, uninfected cells, 24 hours, read-out: Uninfected HeLa-ACE2 CC50): > 39.8 µM
Cc1cncc(CN2CCN(C(c3ccccc3)c3ccccc3)CC2=O)c1 [AA-645, 4-benzhydryl-1-((5-methylpyridin-3-yl)methyl)piperazin-2-one]	> 9.61	> 9.61	> 39.8	–
Cc1cncc(CN2CCN(C(c3ccccc3)c3ccccc3)CC2=O)c1 [AA-646, 4-benzhydryl-1-((5-methylpyridin-3-yl)methyl)piperazin-2-one]	–	–	–	EC50 [1, 5]: 5.2 µM; IC50 ([3]; Table 2, read-out: Enzyme IC50): 6.1 µM
c1ccc(C(c2ccccc2)N2CCN(c3nccc4ccncc34)CC2)cc1 [AA-649, 1-(4-benzhydrylpiperazin-1-yl)-2,7-naphthyridine]	> 9.61	> 9.61	> 39.8	–
O=C(c1cncc2cc[nH]c12)N1CC2CCC(C1)N2C(c1cccc(F)c1)c1cccc(F)c1 [AA-663, [8-[bis(3-fluorophenyl)methyl]-3,8-diazabicyclo[3.2.1]octan-3-yl]-(1H-pyrrolo[3,2-c]pyridin-7-yl)methanone]	–	–	–	EC50 ([1]; Severe acute respiratory syndrome coronavirus 2, HeLa, read-out: CoV-2 HeLa EC50, Table 3): 0.063 µM; IC50 ([3]; Enzyme IC50, Table 2): 0.038 µM; IC50 ([3]; Enzyme IC50, Table 3, select example compounds against mpro): 0.014 µM
O=C(c1cnc2ccccc2c1)N1CCN(C(c2ccccc2)c2ccccc2)CC1 [MKP-1167, 3-[4-(diphenylmethyl)piperazine-1-carbonyl]quinoline]	> 9.61	> 9.61	> 39.8	–
C=C(C)C(=O)N1CCN(C(c2ccccc2)c2ccccc2)CC1 [MKP-1219, 1-[4-(diphenylmethyl)piperazin-1-yl]-2-methylprop-2-en-1-one]	> 9.61	> 9.61	> 39.8	–
N#Cc1ccc(C(=O)N2CCN(C(c3ccccc3)c3ccccc3)CC2)cn1 [MKP-1229, 5-[4-(diphenylmethyl)piperazine-1-carbonyl]pyridine-2-carbonitrile]	> 9.61	> 9.61	> 39.8	–
N#CC(c1cccnc1)N1CCN(C(c2ccccc2)c2ccccc2)CC1 (centres unmarked) [MKP-1306, 2-[4-(diphenylmethyl)piperazin-1-yl]-2-(pyridin-3-yl)acetonitrile]	> 9.61	> 9.61	> 39.8	–
Cc1cncc(CN2CCN(C(c3ccccc3)c3ccccc3)CC2)c1 [MKP-1307, 1-(diphenylmethyl)-4-[(5-methylpyridin-3-yl)methyl]piperazine]	> 9.61	> 9.61	> 39.8	–
Nc1ccc(C(=O)N2CCN(C(c3ccccc3)c3ccccc3)CC2)cn1 [MKP-1309, 5-[4-(diphenylmethyl)piperazine-1-carbonyl]pyridin-2-amine]	> 9.61	> 9.61	> 39.8	–
O=C(c1cncs1)N1CCN(C(c2ccccc2)c2ccccc2)CC1 [MKP-1318, 1-(diphenylmethyl)-4-(1,3-thiazole-5-carbonyl)piperazine]	> 9.61	> 9.61	> 39.8	–
Nc1ncc(C(=O)N2CCN(C(c3ccccc3)c3ccccc3)CC2)cn1 [MKP-1322, 5-[4-(diphenylmethyl)piperazine-1-carbonyl]pyrimidin-2-amine]	> 9.61	> 9.61	> 39.8	–
